Measured values published in US7371766B2, “Curcumin analogs with anti-tumor and anti-angiogenic properties” (Emory University, priority 1999, dated 2008).

Tests used:
A549 = conditions: 48 hours; for GI50: read-out: Median Growth Inhibitory Concentration (GI50), A549, Non-Small Cell Lung Cancer
MALME-3M = conditions: for GI50: read-out: Median Growth Inhibitory Concentration (GI50), Melanoma, 48 hours
RXF 393 = conditions: 48 hours; for GI50: read-out: Median Growth Inhibitory Concentration (GI50), RXF 393, Renal Cancer
CAKI-1 = conditions: 48 hours; for GI50: read-out: Median Growth Inhibitory Concentration (GI50), CAKI-1, Renal Cancer
OVCAR-8 = conditions: 48 hours; for GI50: read-out: Median Growth Inhibitory Concentration (GI50), OVCAR-8, Ovarian Cancer
HOP-62 = conditions: 48 hours; for GI50: read-out: Median Growth Inhibitory Concentration (GI50), HOP-62, Non-Small Cell Lung Cancer
HCT-116 = conditions: 48 hours; for GI50: read-out: Median Growth Inhibitory Concentration (GI50), HCT-116, Colon Cancer
MOLT-4 = conditions: 48 hours; for GI50: read-out: Median Growth Inhibitory Concentration (GI50), MOLT-4, Leukemia
SK-MEL-5 = conditions: 48 hours; for GI50: read-out: Median Growth Inhibitory Concentration (GI50), SK-MEL-5, Melanoma
SF-295 = conditions: 48 hours; for GI50: read-out: Median Growth Inhibitory Concentration (GI50), SF-295, CNS Cancer
NCI/ADR-RES = conditions: for GI50: read-out: Median Growth Inhibitory Concentration (GI50), Breast Cancer, 48 hours
OVCAR-4 = conditions: 48 hours; for GI50: read-out: Median Growth Inhibitory Concentration (GI50), OVCAR-4, Ovarian Cancer
SK-MEL-2 = conditions: 48 hours; for GI50: read-out: Median Growth Inhibitory Concentration (GI50), SK-MEL-2, Melanoma
DU-145 = conditions: 48 hours; for GI50: read-out: Median Growth Inhibitory Concentration (GI50), DU-145, Prostate Cancer
HCC-2998 = conditions: 48 hours; for GI50: read-out: Median Growth Inhibitory Concentration (GI50), HCC-2998, Colon Cancer
SN12C = conditions: for GI50: read-out: Median Growth Inhibitory Concentration (GI50), Renal Cancer, 48 hours
HL-60 (TB) = conditions: for GI50: read-out: Median Growth Inhibitory Concentration (GI50), Leukemia, 48 hours
BT-549 = conditions: 48 hours; for GI50: read-out: Median Growth Inhibitory Concentration (GI50), BT-549, Breast Cancer
IGROV1 = conditions: 48 hours; for GI50: read-out: Median Growth Inhibitory Concentration (GI50), IGROV1, Ovarian Cancer
EKVX = conditions: for GI50: read-out: Median Growth Inhibitory Concentration (GI50), Non-Small Cell Lung Cancer, 48 hours
NCI-H226 = conditions: 48 hours; for GI50: read-out: Median Growth Inhibitory Concentration (GI50), NCI-H226, Non-Small Cell Lung Cancer
PC-3 = conditions: 48 hours; for GI50: read-out: Median Growth Inhibitory Concentration (GI50), PC-3, Prostate Cancer
COLO 205 = conditions: 48 hours; for GI50: read-out: Median Growth Inhibitory Concentration (GI50), COLO 205, Colon Cancer
NCI-H460 = conditions: 48 hours; for GI50: read-out: Median Growth Inhibitory Concentration (GI50), NCI-H460, Non-Small Cell Lung Cancer
LOX IMVI = conditions: for GI50: read-out: Median Growth Inhibitory Concentration (GI50), Melanoma, 48 hours
SF-539 = conditions: 48 hours; for GI50: read-out: Median Growth Inhibitory Concentration (GI50), SF-539, CNS Cancer
SW-620 = conditions: 48 hours; for GI50: read-out: Median Growth Inhibitory Concentration (GI50), SW-620, Colon Cancer
[1] = read-out: Median Lethal Concentration (LC50), Melanoma, 48 hours, SRB assay

Q: What does the source list for `O=C1C(=Cc2ccccc2O)COCC1=Cc1ccccc1O` [EF25, 3,5-Bis(2-hyrdoxybenzylidene)tetrahydro4-H-pyran4-one]?
A: GI50 (A549): 2500 nM; CC50 (A549; read-out: Median Lethal Concentration (LC50), Non-Small Cell Lung Cancer, A549, SRB assay): 71800 nM; GI50 (MALME-3M): 1900 nM; CC50 (MALME-3M; [1]): 19300 nM; GI50 (RXF 393): 600 nM; CC50 (RXF 393; read-out: Median Lethal Concentration (LC50), Renal Cancer, RXF 393, SRB assay): 4600 nM; GI50 (CAKI-1): 1800 nM; CC50 (CAKI-1; read-out: Median Lethal Concentration (LC50), Renal Cancer, CAKI-1, SRB assay): 53700 nM; GI50 (OVCAR-8): 800 nM; CC50 (OVCAR-8; read-out: Median Lethal Concentration (LC50), Ovarian Cancer, OVCAR-8, SRB assay): 23000 nM; GI50 (HOP-62): 1500 nM; CC50 (HOP-62; read-out: Median Lethal Concentration (LC50), Non-Small Cell Lung Cancer, HOP-62, SRB assay): 37200 nM; GI50 (HCT-116): 800 nM; CC50 (HCT-116; read-out: Median Lethal Concentration (LC50), Colon Cancer, HCT-116, SRB assay): 11100 nM; GI50 (MOLT-4): 400 nM; CC50 (MOLT-4; read-out: Median Lethal Concentration (LC50), Leukemia, MOLT-4, SRB assay): > 100000 nM; GI50 (SK-MEL-5): 1500 nM; CC50 (SK-MEL-5; read-out: Median Lethal Concentration (LC50), Melanoma, SK-MEL-5, SRB assay): 6600 nM; GI50 (SF-295): 1700 nM; CC50 (SF-295; read-out: Median Lethal Concentration (LC50), CNS Cancer, SF-295, SRB assay): 35000 nM; GI50 (NCI/ADR-RES): 1600 nM; CC50 (NCI/ADR-RES; read-out: Median Lethal Concentration (LC50), Breast Cancer, 48 hours, SRB assay): 71000 nM; GI50 (OVCAR-4): 2000 nM; CC50 (OVCAR-4; read-out: Median Lethal Concentration (LC50), Ovarian Cancer, OVCAR-4, SRB assay): 23300 nM; GI50 (SK-MEL-2): 2000 nM; CC50 (SK-MEL-2; read-out: Median Lethal Concentration (LC50), Melanoma, SK-MEL-2, SRB assay): 12600 nM; GI50 (DU-145): 1200 nM; CC50 (DU-145; read-out: Median Lethal Concentration (LC50), Prostate Cancer, DU-145, SRB assay): 20100 nM; GI50 (HCC-2998): 1500 nM; CC50 (HCC-2998; read-out: Median Lethal Concentration (LC50), Colon Cancer, HCT-2998, SRB assay): 5300 nM; GI50 (SN12C): 1400 nM; CC50 (SN12C; read-out: Median Lethal Concentration (LC50), Renal Cancer, 48 hours, SRB assay): 12000 nM; GI50 (HL-60 (TB)): 1100 nM; CC50 (HL-60 (TB); read-out: Median Lethal Concentration (LC50), Leukemia, 48 hours, SRB assay): > 100000 nM; GI50 (BT-549): 1500 nM; CC50 (BT-549; read-out: Median Lethal Concentration (LC50), Breast Cancer, BT-549, SRB assay): 13600 nM; GI50 (IGROV1): 800 nM; CC50 (IGROV1; read-out: Median Lethal Concentration (LC50), Ovarian Cancer, IGROV1, SRB assay): 14500 nM; GI50 (EKVX): 1400 nM; CC50 (EKVX; read-out: Median Lethal Concentration (LC50), Non-Small Cell Lung Cancer, 48 hours, SRB assay): 24200 nM; GI50 (NCI-H226): 2200 nM; CC50 (NCI-H226; read-out: Median Lethal Concentration (LC50), Non-Small Cell Lung Cancer, NCI-H226, SRB assay): 58000 nM; GI50 (PC-3): 500 nM; CC50 (PC-3; read-out: Median Lethal Concentration (LC50), Prostate Cancer, PC-3, SRB assay): 24800 nM; GI50 (COLO 205): 2000 nM; CC50 (COLO 205; read-out: Median Lethal Concentration (LC50), Colon Cancer, COLO 205, SRB assay): 33400 nM; GI50 (NCI-H460): 1200 nM; CC50 (NCI-H460; read-out: Median Lethal Concentration (LC50), Non-Small Cell Lung Cancer, NCI-H460, SRB assay): 38900 nM; GI50 (LOX IMVI): 200 nM; CC50 (LOX IMVI; [1]): 3600 nM; GI50 (SF-539): 500 nM; CC50 (SF-539; read-out: Median Lethal Concentration (LC50), CNS Cancer, SF-539, SRB assay): 16800 nM; GI50 (SW-620): 500 nM; CC50 (SW-620; read-out: Median Lethal Concentration (LC50), Colon Cancer, SW-620, SRB assay): 75300 nM

Q: How did the GI50 (A549) turn out when `C(=C\c1ccccc1)/S/C=C/c1ccccc1` [EF15] was run?
A: Its GI50 is > 100000 nM.

Q: What about the GI50 (MALME-3M) of the same compound?
A: The GI50 was > 100000 nM.

Q: What about the GI50 (RXF 393) of the same compound?
A: The GI50 was 23500 nM.

Q: And the GI50 (CAKI-1)?
A: The GI50 was > 100000 nM.

Q: And the GI50 (OVCAR-8)?
A: The GI50 was > 100000 nM.

Q: And the GI50 (HOP-62)?
A: The GI50 was > 100000 nM.

Q: What about the GI50 (HCT-116) of the same compound?
A: The GI50 was > 100000 nM.

Q: What about the GI50 (MOLT-4) of the same compound?
A: The GI50 was > 100000 nM.

Q: And the GI50 (SK-MEL-5)?
A: Its GI50 is 53900 nM.

Q: What about the GI50 (SF-295) of the same compound?
A: The GI50 was 80900 nM.

Q: And the GI50 (NCI/ADR-RES)?
A: Its GI50 is > 100000 nM.

Q: And the GI50 (OVCAR-4)?
A: The GI50 was > 100000 nM.

Q: And the GI50 (SK-MEL-2)?
A: Its GI50 is 31700 nM.

Q: And the GI50 (DU-145)?
A: Its GI50 is > 100000 nM.

Q: What about the GI50 (HCC-2998) of the same compound?
A: The GI50 was 31600 nM.

Q: What about the GI50 (SN12C) of the same compound?
A: The GI50 was > 100000 nM.

Q: What about the GI50 (HL-60 (TB)) of the same compound?
A: The GI50 was 49900 nM.

Q: And the GI50 (BT-549)?
A: The GI50 was > 100000 nM.

Q: And the GI50 (IGROV1)?
A: Its GI50 is > 100000 nM.

Q: What about the GI50 (EKVX) of the same compound?
A: Its GI50 is 64000 nM.

Q: And the GI50 (NCI-H226)?
A: The GI50 was > 100000 nM.

Q: What about the GI50 (PC-3) of the same compound?
A: The GI50 was > 100000 nM.

Q: And the GI50 (COLO 205)?
A: The GI50 was > 100000 nM.

Q: And the GI50 (NCI-H460)?
A: Its GI50 is > 100000 nM.

Q: What about the GI50 (LOX IMVI) of the same compound?
A: The GI50 was > 100000 nM.

Q: What about the GI50 (SF-539) of the same compound?
A: The GI50 was > 100000 nM.

Q: What about the GI50 (SW-620) of the same compound?
A: Its GI50 is 79800 nM.

Q: What does the source list for `N.N.[Cl][Pt][Cl]` [Cisplatin, reference compound]?
A: GI50 (A549): 800 nM; GI50 (MALME-3M): 200 nM; GI50 (RXF 393): 800 nM; GI50 (CAKI-1): 300 nM; GI50 (OVCAR-8): 1000 nM; GI50 (HOP-62): 300 nM; GI50 (HCT-116): 1300 nM; GI50 (MOLT-4): 300 nM; GI50 (SK-MEL-5): 500 nM; GI50 (SF-295): 300 nM; GI50 (NCI/ADR-RES): 800 nM; GI50 (OVCAR-4): 300 nM; GI50 (SK-MEL-2): 1300 nM; GI50 (DU-145): 400 nM; GI50 (HCC-2998): 100 nM; GI50 (SN12C): 1000 nM; GI50 (HL-60 (TB)): 100 nM; GI50 (BT-549): 1300 nM; GI50 (IGROV1): 600 nM; GI50 (EKVX): 1600 nM; GI50 (NCI-H226): 800 nM; GI50 (PC-3): 1600 nM; GI50 (COLO 205): 4000 nM; GI50 (NCI-H460): 100 nM; GI50 (LOX IMVI): 300 nM; GI50 (SF-539): 400 nM; GI50 (SW-620): 800 nM
